In assay [1] the test system is Diabrotica virgifera virgifera. The assay is described as follows: Test Example 13: treated corn seeds, controlling effect on Diabrotica virgifera virgifera larvae. It is filed as in vivo. How it is done: (§1) If the effect by the combination of two active ingredients is greater than that of the estimated value E, which is calculated by the Colby's equation as follows, the effect is regarded as synergistic. E=X+Y−X·Y/100 wherein, • E=Controlling effect when using the mixture of the active ingredients A and B at the concentrations m and n (amount of the active ingredient), respectively. • X=Controlling effect when using the active ingredient A at the concentration m (amount of the active ingredient). • Y=Controlling effect when using the active ingredient B at the concentration n (amount of the active ingredient).
In a rotary seed treatment machine (trade name: HEGE11, manufactured by WINTERSTEIGER), corn seeds (variety: yellow dent corn) were treated by smearing treatment using the wettable powder of the present bacterial strain obtained in Formulation Example 13 or clothianidin flowable formulation (47.8% flowable formulation, trade name: NipsIt Inside Insecticide, Valent U.S.A. Corporation), or imidacloprid flowable formulation (48.7% flowable formulation, trade name: Gaucho 600, Bayer CropScience), so that the corn seeds thus treated retain the present bacterial strain, clothianidin or imidacloprid in the amount shown in Table 6.
In a rotary seed treatment machine (trade name: HEGE11, manufactured by WINTERSTEIGER), the corn seeds thus treated with clothianidin or imidacloprid were treated by wet powder coating with a wettable powder of the present bacterial strain as obtained in Formulation Example 13, so that the […] thus treated retain the present bacterial strain and clothianidin or the present bacterial strain and imidacloprid in the amount shown in Table 6.
Newly hatched larvae of Diabrotica virgifera virgifera are released (10 for each stalk of corn) on the 7th day after the seeding, and the number of living Diabrotica virgifera virgifera was counted on the 10th day after the release. Similar procedures were conducted using untreated corn seeds, instead of the treated corn seeds, as described above for the treated compartment (“untreated compartment”).
Based on the numbers of survivors in the treated compartment and the untreated compartment, the effect in the treated compartment was calculated by the following equation. Controlling effect=100×[(number of survivors in untreated compartment number of survivors in treated compartment)/number of survivors in untreated compartment]

Assay [2] deals with Aphis gossypii. The assay is described as follows: Test Example 12: treated soybean seeds, controlling effect on Aphis gossypii. It is filed as in vivo. The protocol: In a rotary seed treatment machine (trade name: HEGE11, manufactured by WINTERSTEIGER), soybean seeds (variety:“Hatayutaka”) were treated by smearing treatment using flowable formulation of the present bacterial strain obtained in Formulation Example 14, flupyradifurone liquid formulation (20.0% liquid formulation, trade name: SIVANTO200, Bayer CropScience), thiacloprid flowable formulation (40.0% flowable formulation, trade name: Sonido, Bayer CropScience), thiamethoxam flowable formulation (47.6% flowable formulation, trade name: Cruiser 5FS, Syngenta Crop Protection LCC), so that the soybean seeds retain the present bacterial strain and the compound in the amount shown in Table 5.
Twenty Aphis gossypii were released on the 14th day after the seeding, and the number of living Aphis gossypii was counted on the 5th day after the release. Similar procedures were conducted using untreated soybean seeds, instead of the treated soybean seeds, as described above for the treated compartment (“untreated compartment”).
Based on the numbers of survivors in the treated compartment and the untreated compartment, the effect in the treated compartment was calculated by the following equation. Controlling effect=100×[(number of survivors in untreated compartment−number of survivors in treated compartment)/number of survivors in untreated compartment]
as §1

Take `O=[N+]([O-])NC1=NCCN1Cc1ccc(Cl)nc1` [Imidacloprid, imidacloprid]: the results for the “Controlling Effect” value in assay [1] (corn seeds retaining 2.0 g /Kg seeds) and in assay [1] (corn seeds retaining 2.5 g /Kg seeds) were 51.4 and 62.8, respectively.

Consider `CN/C(=N\[N+](=O)[O-])NCc1cnc(Cl)s1` [Clothianidin, clothianidin], for which the “Controlling Effect” value in assay [1] (corn seeds retaining 0.6 g /Kg seeds) stood at 41.4; in assay [1] (corn seeds retaining 1.2 g /Kg seeds), 64.3.

Take `CN1COCN(Cc2cnc(Cl)s2)/C1=N\[N+](=O)[O-]` [Thiamethoxam, thiamethoxam]: the “Controlling Effect” value in assay [2] (soybean seeds retaining 0.15 g /Kg seeds) was determined as 70.6; in assay [2] (soybean seeds retaining 0.25 g /Kg seeds) it was 78.4.

Take `N#C/N=C1\SCCN1Cc1ccc(Cl)nc1` [Thiacloprid, thiacloprid]: the “Controlling Effect” value in assay [2] (soybean seeds retaining 0.3 g /Kg seeds) turned out to be 56.9; in assay [2] (soybean seeds retaining 0.45 g /Kg seeds), 69.0.

As for `O=C1C=C(N(Cc2ccc(Cl)nc2)CC(F)F)CO1` [Flupyradifurone, flupyradifurone], the entries for the “Controlling Effect” value in assay [2] (soybean seeds retaining 0.2 g /Kg seeds) and in assay [2] (soybean seeds retaining 0.4 g /Kg seeds) were 65.9 and 77.6, respectively.
